Test results as given in patent US20260242352A1, “INHIBITION OF SHIP1 AS A THERAPEUTIC STRATEGY FOR THE TREATMENT OF ALZHEIMER'S DISEASE” (The Trustees of Indiana University, priority 2022, published 2026).

Target: T1, HiBit-labeled full length SHIP1 protein (Homo sapiens, UniProt Q92835)
T1 construct: thermal stability of a HiBit-labeled full length SHIP1 protein in intact cells; expressed in transfected cells; host or cells: HMC3 (stably transfected)
T1 sequence (Q92835 1-1189): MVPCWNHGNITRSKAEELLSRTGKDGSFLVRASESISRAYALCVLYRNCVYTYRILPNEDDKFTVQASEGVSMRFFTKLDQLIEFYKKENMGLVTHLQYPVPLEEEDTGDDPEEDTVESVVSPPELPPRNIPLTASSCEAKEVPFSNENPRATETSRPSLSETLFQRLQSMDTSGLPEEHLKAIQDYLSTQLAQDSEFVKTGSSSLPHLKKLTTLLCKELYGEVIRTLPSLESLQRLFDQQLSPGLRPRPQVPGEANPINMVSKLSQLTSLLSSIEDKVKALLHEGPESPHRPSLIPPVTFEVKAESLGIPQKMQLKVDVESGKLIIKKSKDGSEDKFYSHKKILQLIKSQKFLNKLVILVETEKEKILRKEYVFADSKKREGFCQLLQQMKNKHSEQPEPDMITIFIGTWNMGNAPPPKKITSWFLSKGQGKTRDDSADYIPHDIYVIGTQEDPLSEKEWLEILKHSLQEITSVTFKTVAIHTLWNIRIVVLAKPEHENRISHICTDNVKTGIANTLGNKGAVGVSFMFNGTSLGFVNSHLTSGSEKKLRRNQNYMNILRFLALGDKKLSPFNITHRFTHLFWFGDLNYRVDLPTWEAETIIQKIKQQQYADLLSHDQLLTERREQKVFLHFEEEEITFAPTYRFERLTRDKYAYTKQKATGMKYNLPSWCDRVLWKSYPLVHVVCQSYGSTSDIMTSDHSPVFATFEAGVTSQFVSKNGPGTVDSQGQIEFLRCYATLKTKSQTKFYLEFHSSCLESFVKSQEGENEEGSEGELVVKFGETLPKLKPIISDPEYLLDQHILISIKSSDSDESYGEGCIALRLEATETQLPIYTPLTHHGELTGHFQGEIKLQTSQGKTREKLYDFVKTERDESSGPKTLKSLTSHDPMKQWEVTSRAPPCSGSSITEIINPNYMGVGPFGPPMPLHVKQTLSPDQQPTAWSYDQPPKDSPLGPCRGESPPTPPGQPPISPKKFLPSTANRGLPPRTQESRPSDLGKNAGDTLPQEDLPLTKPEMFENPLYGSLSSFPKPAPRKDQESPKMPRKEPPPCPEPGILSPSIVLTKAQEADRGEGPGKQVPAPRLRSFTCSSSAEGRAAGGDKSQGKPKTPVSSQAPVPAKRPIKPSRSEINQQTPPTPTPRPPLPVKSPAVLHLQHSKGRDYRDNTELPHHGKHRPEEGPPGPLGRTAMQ
Assay: Cellular thermal shift assay (SplitLuc CETSA), compound dose response
Format: cell-based
Conditions: HMC3/HiBit-INPP5D cells, 60 min; for CETSA Min Inhibition (%): heated at 44.2° C.; for AC50: heated at 44.2° C. for 3 min, 8-point curve from 80 uM or 100 uM
Procedure: Cellular thermal shift assay (CETSA). […] This assay was run in the following two formats with HMC3/HiBit-INPP5D stably transfected cells.
2. Compound dose response: run at target Tm (44.2° C. for SHIP1) with compound dosing from 80 uM or 100 uM with 1:3 serial dilutions to generate an 8 point curve. Cells were treated for 60 min before being heated at target Tm for 3 min before luminescence detection. An AC50 was calculated using a four-parameter logistic curve regression model with change at highest concentration noted when difference from control >3SD, otherwise AC50 marked as “nc” for not calculated.
See Martinez et al. (2018) Sci Rep 8: p. 9472; Oh-Hashi et al. (2017) Biochem Biophys Rep 12: pp. 40-45. This assay was run in the following two formats with HMC3/HiBit-INPP5D stably transfected cells.
Compound dose response: run at target Tm (44.2° C. for SHIP1) with compound dosing from 80 uM or 100 uM with 1:3 serial dilutions to generate an 8-point curve. Cells were treated for 60 min before being heated at target Tm for 3 min before luminescence detection. The concentration that induced a half-maximum response (AC50) was calculated using a four-parameter logistic curve regression model with change at highest concentration noted when difference from control >3SD.

Cc1ccccc1COc1cncc(-c2cnn(C3CCNCC3)c2)c1 [Compound 25, 3-[(2-Methylphenyl)methoxy]-5-[1-(piperidin-4-yl)-1H-pyrazol-4-yl]pyridine]
CETSA Min Inhibition (%): 24.9% | AC50: 83.6 µM

C[C@H](Oc1cncc(-c2cnn(C3CCNCC3)c2)c1)c1ccccc1Cl [Compound 21, (S)-3-(1-(2-chlorophenyl)ethoxy)-5-(1-(piperidin-4-yl)-1H-pyrazol-4-yl)pyridine]
CETSA Min Inhibition (%): 24.9% | AC50: 54.7 µM

CC(C)(C)OC(=O)N1CCC(n2cc(-c3cncc(OCc4ccccc4F)c3)cn2)CC1 [Compound 2, tert-butyl 4-(4-(5-((2-fluorobenzyl)oxy)pyridin-3-yl)-1H-pyrazol-1-yl)piperidine-1-carboxylate]
CETSA Min Inhibition (%): 70.6%

Clc1ccccc1COc1cncc(-c2ccn(C3CCNCC3)n2)c1 [Compound 26, 3-((2-chlorobenzyl)oxy)-5-(1-(piperidin-4-yl)-1H-pyrazol-3-yl)pyridine]
CETSA Min Inhibition (%): 14.6% | AC50: 87.4 µM

Clc1ccccc1COc1cccc(-c2cnn(C3CCNCC3)c2)c1 [Compound 29, 4-(4-(3-((2-chlorobenzyl)oxy)phenyl)-1H-pyrazol-1-yl)piperidine]
CETSA Min Inhibition (%): 28.4% | AC50: 55 µM

CC(C)(C)CCN1CCC(n2cc(-c3cncc(OCc4ccccc4Cl)c3)cn2)CC1 [Compound 15, 3-((2-chlorobenzyl)oxy)-5-(1-(1-(3,3-dimethylbutyl)piperidin-4-yl)-1H-pyrazol-4-yl)pyridine]
CETSA Min Inhibition (%): 66.7%

Cl.Clc1ccc(COc2cncc(-c3cnn(C4CCNCC4)c3)c2)c(Cl)c1 [Compound 10, 3-((2,4-dichlorobenzyl)oxy)-5-(1-(piperidin-4-yl)-1H-pyrazol-4-yl)pyridine hydrochloride]
CETSA Min Inhibition (%): 10.2% | AC50: 53.8 µM

Clc1ccccc1COc1cncc(-n2ccc(C3CCNCC3)n2)c1 [Compound 27, 3-((2-chlorobenzyl)oxy)-5-(3-(piperidin-4-yl)-1H-pyrazol-1-yl)pyridine]
CETSA Min Inhibition (%): 10.1% | AC50: 57.1 µM

C[C@@H](Oc1cncc(-c2cnn(C3CCNCC3)c2)c1)c1ccc(Cl)cc1 [Compound 23, (R)-3-(1-(4-chlorophenyl)ethoxy)-5-(1-(piperidin-4-yl)-1H-pyrazol-4-yl)pyridine]
CETSA Min Inhibition (%): 8.15% | AC50: 50.6 µM

Cc1ccccc1COc1cncc(-c2cnn(C3CCN(C(=O)OC(C)(C)C)CC3)c2)c1 [Compound 3, tert-butyl 4-(4-(5-((2-methylbenzyl)oxy)pyridin-3-yl)-1H-pyrazol-1-yl)piperidine-1-carboxylate]
CETSA Min Inhibition (%): 60.8% | AC50: 77 µM

Clc1ccccc1COc1cncc(-n2cc(C3CCNCC3)cn2)c1 [Compound 28, 3-((2-chlorobenzyl)oxy)-5-(4-(piperidin-4-yl)-1H-pyrazol-1-yl)pyridine]
CETSA Min Inhibition (%): 5.98% | AC50: 55.5 µM

CC(C)(C)OC(=O)N1CCC(n2cc(-c3cncc(OCc4ccccc4Cl)c3)cn2)CC1 [Compound 1, tert-butyl 4-(4-{5-[(2-chlorophenyl)methoxy]pyridin-3-yl}-1H-pyrazol-1-yl)piperidine-1-carboxylate]
CETSA Min Inhibition (%): 74.7%

C[C@@H](Oc1cncc(-c2cnn(C3CCNCC3)c2)c1)c1ccccc1Cl [Compound 22, (R)-3-(1-(2-chlorophenyl)ethoxy)-5-(1-(piperidin-4-yl)-1H-pyrazol-4-yl)pyridine]
CETSA Min Inhibition (%): 24.6% | AC50: 43.4 µM

CC(C)(C)OC(=O)N1CCC(n2cc(-c3cncc(OCc4ccc(Br)cc4)c3)cn2)CC1 [Compound 7, tert-butyl 4-(4-(5-((4-bromobenzyl)oxy)pyridin-3-yl)-1H-pyrazol-1-yl)piperidine-1-carboxylate]
CETSA Min Inhibition (%): 66.3%

Cl.Clc1ccccc1COc1cncc(-c2cnn(C3CCNCC3)c2)c1 [Compound 9, 3-((2-chlorobenzyl)oxy)-5-(1-(piperidin-4-yl)-1H-pyrazol-4-yl)pyridine hydrochloride]
CETSA Min Inhibition (%): 16.0% | AC50: 55 µM

CC(C)(C)CC(=O)N1CCC(n2cc(-c3cncc(OCc4ccccc4Cl)c3)cn2)CC1 [Compound 16, 1-(4-(4-(5-((2-chlorobenzyl)oxy)pyridin-3-yl)-1H-pyrazol-1-yl)piperidin-1-yl)-3,3-dimethylbutan-1-one]
CETSA Min Inhibition (%): 64.5% | AC50: 79.6 µM

CC(C)(C)OC(=O)N1CCC(n2cc(-c3cncc(OCc4ccccc4)c3)cn2)CC1 [Compound 4, tert-butyl 4-(4-(5-(benzyloxy)pyridin-3-yl)-1H-pyrazol-1-yl)piperidine-1-carboxylate]
CETSA Min Inhibition (%): 69.2% | AC50: > 80 µM
